Laboratory results as given in patent publication US12448483B2, “Process for preparing carboxylic acid ester-cross-linked polyglycerol esters of 3-hydroxybutyric acid” (KetoLipix Therapeutics GmbH, priority 2020, dated 2025).

Legend:
[1] = even if several grams are taken; cited from earlier work
[2] = Viscosity of samples from the structural analysis; type: physicochemical
Protocol: For structural analysis, a monodiglycerol ester of 3-hydroxybutyric acid crosslinked with succinic acid is produced according to synthesis route (A) and characterized by gel permeation chromatography (GPC) and acid number determination.
(§1) Subsequently, in the second method step (b), 100 g of the monodiglycerol ester of 3-hydroxybutyric acid are caused to react with 10 g succinic acid anhydride according to a first batch with stirring at 80° C. for 20 h and the water formed is continuously withdrawn by distillation. A sample is taken for further analysis (Sample A) and then another 7 g succinic acid anhydride are added and caused to react at 120° C. for another 6 h. The water formed is withdrawn by continuous distillation. Then another sample is taken for analysis (sample C).
as §1, with “Furthermore,” for “Subsequently,”, “(b), according to a second approach,” for “(b),”, “with the addition of 100 μL of titanium tetrabutylate (catalyst)” for “according to a first batch”, “(sample B)” for “(Sample A)”, “80°” for “120°”, “D).” for “C).”

Row | Compound | Duration of ketosis [1] | Viscosity at 25° C. [2]
1 | CC(O)CC(=O)O (centres unmarked) [3-hydroxybutyric acid] | three to four | –
2 | monodiglycerol esters of 3-hydroxybutyric acid [Educt] | – | 15,700 Pas
